According to patent US8236756B2, “Prodrugs cleavable by CD26” (Consejo Superior de Investigaciones Clentificas (CSIC), priority 2003, dated 2012):

What was measured:
[1] = biological target: T1, purified CD26 (Homo sapiens, UniProt P27487); test: Conversion of peptide prodrugs to parent compound by purified CD26 (HPLC); type: biochemical; details: for Conversion % to parent compound by purified CD26, 1 h / Conversion % to parent compound by purified CD26, 4 h / Conversion % to parent compound by purified CD26, 24 h: Table 1
T1 construct: made in house
Description: To reveal whether CD26 recognizes such synthetic di/tripeptide derivatives of lipophilic nucleoside analogues as a substrate, 50 μM CAM-405 or CAM-431 was exposed to 5.7 mUnits of purified CD26, and the conversion of CAM-405 or CAM-431 to respectively CAM-212 or CAM-403 (Val-NAP-TSAO) was recorded in function of incubation time by HPLC analysis. […] Within the first 10 min of the reaction, at least 20% of CAM-405 had been converted to CAM-212, fifty percent of the TSAO dipeptide derivative was converted to CAM-212 within 30 min of the reaction and ˜67% of CAM-405 was hydrolyse after 60 min. Thus, the reaction rate started already to slow down after the first 10 min of drug exposure (FIG. 2). Most likely, the release of the reaction product Val-Pro dose-dependently feed-back inhibited the CD26-catalysed dipeptidyl-peptidase reaction. […] Thus, in the presence of 50 μM CAM-405, hydrolysis of 50% of CAM-405 to CAM-212 results in the appearance of 25 μM Val-Pro, that is a concentration that (feed-back) inhibits the CD26 reaction by ˜50%. These findings explain why the CD26-catalysed reaction levels-off shortly after the start of the exposure of the drug to CD26. […] Thus, a further level of modulation of the rate of prodrug release can be introduced by choosing a dipeptide moiety that competes for the active site of CD26, until the dipeptide has diffused from the tissue wherein CD26 is present. The inhibitory activity of any dipeptide can be evaluated by the above mentioned assay.
The conversion rate in function of time is given in Table 1 for NAP-TSAO-dipeptides where the dipeptide consists of: Val-Pro, Val-D-Pro, Asp-Pro, Lys-Pro, Tyr-Pro, Gly-Pro, Val-4-hydroxyPro, Gly-3,4-dihydroxyPro, but also Val-Gly, Val-Ala, Val-Leu and Val-Phe. It is clear that the conversion rate to the parent NAP-TSAO differs depending the nature of the dipeptide. Also, when the terminal amine of the dipeptide has been blocked by a lipophilic group (i.e. methyl, Z or Fmoc), the prodrug looses measurable substrate activity for CD26.
The conversion rate in function of time is given in Table 2 for tetrapeptide NAP-TSAO compounds where the tetrapeptide consists of: Val-Pro-Val-Pro [SEQ ID no:6] (CAM 467), Val-Ala-Val-Pro [SEQ ID no:7] (CAM 473) or Lys-Pro-Asp-Pro [SEQ ID no:8] (CAM 477). […] Only traces of dipeptide prodrug (CAM 405) is seen as intermediate in the conversion of the tetrapeptide CAM 473 to NAP-TSAO.
(§1) All enzyme activity assays were performed in Eppendorf tubes on a heating block at 37° C. To each tube were added 32 μl CD26 (at a final concentration of 1.5 milliUnits) or 10 μl foetal bovine serum (BS) (final concentration: 2.5% BS in PBS; preheated at 56° C. for 30 min) or 10 μl human serum (HS) (final concentration: 2.5% HS in PBS), 40 μl of appropriate concentrations of inhibitor (Diprotin A) solution in PBS (for the exact concentrations, see the legend to FIG. 5), CAM-405 (the substrate of the reaction) at […] (final concentration) and PBS to reach a total volume of 400 μl. The pH of the reaction mixture was 7.5, which is virtually identical to the physiological pH of plasma. The reaction was started by the addition of the enzyme or serum and carried out at 37° C. After 5 hr, 100 μl reaction mixture was taken from the Eppendorf tube and added to 200 μl cold methanol to precipitate the proteins. After 10 min standing on ice, the contents of the tubes were centrifuged and the supernatants analysed by HPLC on a reverse phase column (RP-8, Merck Laboratories). CAM-405 was separated from CAM-212 (the product of the reaction) by a gradient of 50 mM sodium phosphate+5 mM heptane sulfonic acid pH 3.2 (Buffer A) and acetonitrile (Buffer B) as follows: Buffer A: 98%+2% Buffer B, 2 min; linear gradient to 20% Buffer. […]

[2] = Conversion of prodrugs to parent compound by bovine serum diluted in PBS; type: in vitro ADME; details: 50 μM; 0.5-5% BS in PBS; 3, 6, 24 hr; 37° C.
Description: (§2) Human and bovine serum were incubated for 3 hr, 6 hr and/or 24 hr at 37° C. in the presence of 50 μM CAM-405. The sera were diluted in PBS at a final concentration of 0.5, 1, 2.5 or 5%. […] The longer the incubation time, and the higher the serum concentration used, the faster the conversion of CAM-405 to CAM-212 occurred (FIG. 4). As also noted for CD26, HS- and BS-catalysed reaction slowed down in function of time, and was not linearly proportional with serum concentration (FIG. 4). These findings provide again evidence for a pronounced feed-back inhibition of dipeptidyl-peptidase activity in human and bovine serum by the released Val-Pro dipeptide. HS was more efficient in converting CAM-405 to CAM-212 than BS (FIG. 4). Since 1% HS is able to hydrolyse ˜20% of 50 μM CAM-405 within 3 hrs of incubation, it could be calculated that undiluted serum would have been able to convert this prodrug amount to its parent compound at a hundred fold higher speed, that is, within 1.8 min, provided that no feed-back inhibition would have occurred (as expected in the intact organism where release of Pro-Val would immediately result in disappearance from the plasma due to several mechanisms including organ uptake, renal excretion, etc.).
(§3) Ten percent BS or HS converted 40 to 70% of PI-2 to PI-1 in one hour (FIG. 10). Two percent BS and HS converted PI-2 to PI-1 by 8% and 25%, respectively. After 4 hrs, 35% and 95% of compound was hydrolyzed by BS and HS, respectively (FIG. 11).
(§4) The TSAO derivatives depicted in FIG. 1 can be synthesised as described below. GlyPro-pNA (GP-pNA), Diprotin A and Val-Pro were purchased from Sigma-Aldrich (Bornem, Belgium). CD26 was purified as described before [De Meester et al. J. Immunol. Methods (1996), 189: 99-105]. Foetal bovine serum (FBS) was obtained from Integro (Dieren, The Netherlands). Human serum represented a pooled serum that was derived from 10 healthy volunteers (blood donors). Human lymphocyte CEM cells were derived from the ATCC (Rockville, Md.).

[3] = Conversion of prodrugs to parent compound by human serum diluted in PBS; type: in vitro ADME
Description: as §2
Only a very limited amount of NAP-TSAO (but not D-Pro-NAP-TSAO) had been detected (FIG. 6).
as §3, §4

[4] = biological target: T1, purified CD26; test: Conversion of peptide prodrugs to parent compound by purified CD26 (HPLC); type: biochemical; details: 50 μM, 5.7 mUnits purified CD26, 37° C.
[5] = test system: T-lymphocytic CEM cell suspensions; test: Conversion of Val-Pro-NAP-TSAO to NAP-TSAO by CEM cell suspensions; type: cell-based, human; details: ten million CEM cells in 200 μl PBS; 3 hrs; 37° C.
Description: The conversion of Val-Pro-NAP-TSAO (CAM-405) to NAP-TSAO (CAM-212) also efficiently occurred by carefully washed T-lymphocytic CEM cell suspensions in PBS. Ten million CEM cells suspended in 200 μl PBS hydrolysed the Val-Pro moiety from CAM-405 by 65% within 3 hrs of incubation at 37° C. This amount of hydrolysis was found both in the PBS supernatant and in the CEM cell extracts. Presumably, CD26 present in the cell membrane of CEM cells had cleaved-off the Val-Pro from CAM-405 after which both truncated and intact prodrug had been taken up by the lymphocytic cells to an equal extent.
as §4

[6] = Solubility in Milli-Q water; type: physicochemical; details: 1 mg/ml in Milli-Q water; 2 × 10 sec sonication, 4 days shaking, room temperature; centrifugation, U.V. spectrum
Source text: It is also clear that the nature of the dipeptide moiety present on NAP-TSAO markedly affect prodrug solubility in water.

[7] = biological target: T1, purified CD26; test: Effect of CD26 inhibitor on conversion of CAM-405 to CAM-212 by purified CD26; type: biochemical; details: CD26 1.5 mUnits, 50 μM CAM-405
Description: (§5) CD26-catalysed CAM-405 conversion to CAM-212 was recorded in the absence or presence of the CD26 inhibitor diprotin A (FIG. 5). […] These observations point to CD26 as the main and predominant enzyme responsible in HS and BS to remove the dipeptide part from the lipophilic NAP-TSAO dipeptide nucleoside analogue.
as §1, with “Laboratories).” for “Laboratories). CAM-405 was separated from CAM-212 (the product of the reaction) by a gradient of 50 mM sodium phosphate+5 mM heptane sulfonic acid pH 3.2 (Buffer A) and acetonitrile (Buffer B) as follows: Buffer A: 98%+2% Buffer B, 2 min; linear gradient to 20% Buffer.”

[8] = Effect of CD26 inhibitor on conversion of CAM-405 to CAM-212 by human serum; type: biochemical; details: 2.5% HS in PBS, 50 μM CAM-405
Description: as §5
as §1, with “Laboratories).” for “Laboratories). CAM-405 was separated from CAM-212 (the product of the reaction) by a gradient of 50 mM sodium phosphate+5 mM heptane sulfonic acid pH 3.2 (Buffer A) and acetonitrile (Buffer B) as follows: Buffer A: 98%+2% Buffer B, 2 min; linear gradient to 20% Buffer.”

[9] = Effect of CD26 inhibitor on conversion of CAM-405 to CAM-212 by bovine serum; type: biochemical; details: 2.5% BS in PBS, 50 μM CAM-405
Description: as §5
as §1, with “Laboratories).” for “Laboratories). CAM-405 was separated from CAM-212 (the product of the reaction) by a gradient of 50 mM sodium phosphate+5 mM heptane sulfonic acid pH 3.2 (Buffer A) and acetonitrile (Buffer B) as follows: Buffer A: 98%+2% Buffer B, 2 min; linear gradient to 20% Buffer.”

T1 sequence (P27487 whole entry): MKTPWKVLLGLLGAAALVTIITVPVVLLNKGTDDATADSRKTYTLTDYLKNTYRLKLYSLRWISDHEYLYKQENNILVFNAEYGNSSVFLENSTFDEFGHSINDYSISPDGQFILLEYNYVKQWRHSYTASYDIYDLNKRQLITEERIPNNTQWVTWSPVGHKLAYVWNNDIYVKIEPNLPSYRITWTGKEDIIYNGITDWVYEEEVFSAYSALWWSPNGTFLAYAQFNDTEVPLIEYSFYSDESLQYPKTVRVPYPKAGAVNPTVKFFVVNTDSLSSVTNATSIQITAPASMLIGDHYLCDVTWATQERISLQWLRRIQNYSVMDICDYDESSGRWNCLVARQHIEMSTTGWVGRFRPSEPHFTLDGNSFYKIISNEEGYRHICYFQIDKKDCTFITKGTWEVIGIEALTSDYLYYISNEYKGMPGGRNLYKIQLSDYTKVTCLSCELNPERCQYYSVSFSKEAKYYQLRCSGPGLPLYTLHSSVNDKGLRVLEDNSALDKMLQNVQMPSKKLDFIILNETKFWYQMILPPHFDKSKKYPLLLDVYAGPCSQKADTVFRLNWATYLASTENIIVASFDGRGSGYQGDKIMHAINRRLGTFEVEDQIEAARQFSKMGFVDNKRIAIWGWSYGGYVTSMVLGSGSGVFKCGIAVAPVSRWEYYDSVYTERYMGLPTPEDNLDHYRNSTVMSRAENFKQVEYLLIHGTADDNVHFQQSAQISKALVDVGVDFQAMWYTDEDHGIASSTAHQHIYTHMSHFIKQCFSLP

Cc1cn(C2OC(CO[Si](C)(C)C(C)(C)C)C3(OS(=O)(=O)C=C3N)C2O[Si](C)(C)C(C)(C)C)c(=O)n(CCCNC(=O)[C@@H]2CCCN2C(=O)[C@@H](N)C(C)C)c1=O (stereo partly drawn) [CAM-405, H-Val-Pro-NAP-TSAO]
Conversion of CAM-405 to CAM-212, first 10 min ([1]; 50 μM, 5.7 mUnits purified CD26, 37° C., 10 min): at least 20%
Conversion of CAM-405 to CAM-212, within 30 min ([1]; 50 μM, 5.7 mUnits purified CD26, 37° C., 30 min): fifty
Conversion % to parent compound by purified CD26, 1 h ([1]; purified CD26 1.5 mUnits, 1 h): 37%
Conversion % to parent compound by purified CD26, 4 h ([1]; purified CD26 1.5 mUnits, 4 h): 62%
Conversion % to parent compound by purified CD26, 24 h ([1]; purified CD26 1.5 mUnits, 24 h): 61%
% conversion to parent compound by purified CD26, 1 h ([1]; Table 2, purified CD26 1.5 mUnits, 1 h): 37%
% conversion to parent compound by purified CD26, 4 h ([1]; Table 2, purified CD26 1.5 mUnits, 4 h): 62%
% conversion to parent compound by purified CD26, 24 h ([1]; Table 2, purified CD26 1.5 mUnits, 24 h): 61%
Conversion of CAM-405 to CAM-212 by bovine serum, in words [2]: efficiently converted
Calculated time for undiluted serum to convert this prodrug amount to parent compound ([3]; 10 μM, extrapolated from 1% human serum): less than 1.8 min
Conversion of CAM-405 to CAM-212 by human serum, in words ([3]; 50 μM, 0.5-5% HS in PBS, 3, 6, 24 hr, 37° C.): efficiently converted
Hydrolysis of CAM-405 by 1% human serum within 3 hrs ([3]; 50 μM, 1% HS in PBS, 3 hrs, 37° C.): ~20%
Calculated time for undiluted serum to convert this prodrug amount to parent compound ([3]; undiluted human serum, extrapolated, provided no feed-back inhibition): ≤ 1.8 min
Hydrolysis of CAM-405, after 60 min [4]: ~67%
Hydrolysis of the Val-Pro moiety by CEM cells [5]: 65%

Cc1cn(C2OC(CO[Si](C)(C)C(C)(C)C)C3(OS(=O)(=O)C=C3N)C2O[Si](C)(C)C(C)(C)C)c(=O)n(CCCNC(=O)[C@H]2CCCN2C(=O)[C@@H](N)C(C)C)c1=O (stereo partly drawn) [CAM-430, H-Val-D-Pro-NAP-TSAO]
Conversion % to parent compound by purified CD26, 1 h ([1]; purified CD26 1.5 mUnits, 1 h): 0%
Conversion % to parent compound by purified CD26, 4 h ([1]; purified CD26 1.5 mUnits, 4 h): ~1%
Conversion % to parent compound by purified CD26, 24 h ([1]; purified CD26 1.5 mUnits, 24 h): ~2%
Conversion by 20% human serum, in words ([3]; 50 μM, 20% human serum in PBS (FIG. 6)): very stable
Spectrum (~265 nm) [6]: 3.220

Diprotin A
Suppression of conversion of CAM-405 to CAM-212 by purified CD26 at 100 μM inhibitor ([7]; 100 μM): > 50%
Prevention of conversion of CAM-405 to CAM-212 by purified CD26 at 1000 μM inhibitor ([7]; 1000 μM): nearly complete prevention
Suppression of conversion of CAM-405 to CAM-212 by HS at 100 μM inhibitor ([8]; 100 μM): > 50%
Prevention of conversion of CAM-405 to CAM-212 in HS at 1000 μM inhibitor ([8]; 1000 μM): nearly complete prevention
Suppression of conversion of CAM-405 to CAM-212 by BS at 100 μM inhibitor ([9]; 100 μM): > 50%
Prevention of conversion of CAM-405 to CAM-212 in BS at 1000 μM inhibitor ([9]; 1000 μM): nearly complete prevention
